According to PubChem BioAssay (NCI):
Where “and” joins values, the source holds several entries; their conditions need not be identical. Equal entries are not always repeated.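 1) Cells in 96-well plates. 2) Compound, 48 h, 5 concentrations. 3) Linear interpolation between surrounding doses. 4) Unreached endpoint = highest concentration. The concentration for 50% growth inhibition is given as GI50. TGI marks complete inhibition of growth.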

Legend:
Assay in all cases: NCI anticancer screen, dose series, 48 h
SK-MEL-5 melanoma = system: SK-MEL-5 melanoma
SNB-19 CNS = system: SNB-19 CNS
CCRF-CEM leukemia = system: CCRF-CEM leukemia
OVCAR-8 ovarian = system: OVCAR-8 ovarian
DU-145 prostate = system: DU-145 prostate
IGROV1 ovarian = system: IGROV1 ovarian
MCF7 breast = system: MCF7 breast
NCI-H226 lung = system: NCI-H226 lung
HCT-15 colon = system: HCT-15 colon
NCI-H522 lung = system: NCI-H522 lung

| Structure (SMILES) | GI50 (SK-MEL-5 melanoma) [µM] | TGI (SK-MEL-5 melanoma) [µM] | GI50 (SNB-19 CNS) | TGI (SNB-19 CNS) | GI50 (CCRF-CEM leukemia) | TGI (CCRF-CEM leukemia) [µM] | GI50 (OVCAR-8 ovarian) | TGI (OVCAR-8 ovarian) | GI50 (DU-145 prostate) [µM] | TGI (DU-145 prostate) [µM] | GI50 (IGROV1 ovarian) | TGI (IGROV1 ovarian) | GI50 (MCF7 breast) [µM] | TGI (MCF7 breast) [µM] | GI50 (NCI-H226 lung) | TGI (NCI-H226 lung) | GI50 (HCT-15 colon) [µM] | TGI (HCT-15 colon) | GI50 (NCI-H522 lung) | TGI (NCI-H522 lung) |
| --- | --- | --- | --- | --- | --- | --- | --- | --- | --- | --- | --- | --- | --- | --- | --- | --- | --- | --- | --- | --- |
| Fc1cccc(Cl)c1Cn1c(-c2c(F)cccc2Cl)nc2ccccc21 | 11.6 | 29.8 | 18.4 µM | 48.1 µM | 26.2 µM | > 100 | 17.3 µM | 37.8 µM | 24.6 | 56.1 | 21.9 µM | > 100 µM | 20 | 57.8 | 22 µM | 57.8 µM | 16.4 | 42.9 µM | 13.3 µM | 44.5 µM |
| CN(C)CC1CCCCCC(Br)C1=O (stereo not drawn) | – | 30.3 | – | > 100 µM | – | 3.15 | – | 32.8 µM | – | 25 | – | > 69.4 µM | – | 12.7 | – | > 53.9 µM | – | 25.4 µM | – | 8.72 µM |
| CCCCCCCCCCCC1=NC(C)(C)CN1CC(C)O (stereo not drawn) | 5.65 | 18.1 | 12.9 µM | 25.8 µM | 2.85 µM | 11.9 | 8.89 µM | 25 µM | 11.7 | 24 | 1.89 µM | 4.75 µM | 2.05 | 4.77 | 13.1 µM | 28.6 µM | 1.95 | 4.75 µM | 3.42 µM | 15.9 µM |
| CC(C)C[CH2][Ge]([CH2]CC(C)C)([CH2]CC(C)C)[CH2]CC(C)C | > 100 | > 100 | > 100 µM | > 100 µM | > 100 µM | > 100 | > 100 µM | > 100 µM | > 100 | > 100 | > 100 µM | > 100 µM | > 100 | > 100 | > 100 µM | > 100 µM | > 100 | > 100 µM | > 100 µM | > 100 µM |
| O=C(Nc1ccc(Nc2ccncc2)cc1)c1ccc(Nc2ccnc3ccc([N+](=O)[O-])cc23)cc1[N+](=O)[O-] | 25.8 | > 100 | 5.61 µM | > 100 µM | 18.6 µM | > 50.6 | 13 µM | 45.2 µM | 5.55 | 25.5 | 14.1 µM | > 83.7 µM | 4.73 | > 100 | 37.5 µM | > 93.9 µM | 35.6 | > 100 µM | 21.9 µM | 68.6 µM |
| O=C(O)c1cn(C2CC2)c2cc(N3CCNCC3)c(F)cc2c1=O | > 100 | > 100 | – | – | > 100 µM | > 100 | > 100 µM | > 100 µM | > 100 | > 100 | > 100 µM | > 100 µM | > 100 | > 100 | > 100 µM | > 100 µM | > 100 | > 100 µM | > 100 µM | > 100 µM |
| O=C(Nc1ccc(Oc2ccc(NC(=O)Nc3ccc([N+](=O)[O-])cc3)cc2)cc1)Nc1ccc([N+](=O)[O-])cc1 | 1.66 | 3.32 | 3.34 µM | > 100 µM | 0.61 µM | 3.22 | 3.17 µM | > 100 µM | 2.44 | > 100 | 1.9 µM | 4.71 µM | 1.68 | 6.22 | 2.9 µM | 27.8 µM | 1.91 | 13.7 µM | 1.03 µM | 4.32 µM |
| Nc1nc(-c2ccc(Cl)cc2)cc(-c2ccc(Cl)cc2)c1-c1nc2ccccc2o1 | 15.4 | 29.9 | 19.6 µM | 41.4 µM | 11.4 µM | 34.1 | 18.4 µM | 36.3 µM | 17.2 | 36.6 | 16.1 µM | 34.3 µM | 10.6 | 35.7 | 19.1 µM | 34.9 µM | 17.2 | 34.8 µM | 15 µM | 30.5 µM |
| Cc1cn([C@H]2C[C@H](O)[C@@H](CO)O2)c(=O)nc1N | – | > 100 | – | > 100 µM | – | > 100 | – | > 100 µM | – | > 100 | – | > 100 µM | – | > 100 | – | > 100 µM | – | > 100 µM | – | > 100 µM |
| O=C1C(Br)=C(Br)C(=O)c2ccccc21 | – | 23.3 | 18.8 µM and 9.17 µM | 37.9 µM and 17.4 µM | 9.85 µM and 2.25 µM | – | 17 µM and 7.06 µM | 30.9 µM and 57 µM | – | 33 | 16.9 µM and 6.06 µM | 45.5 µM and 17.4 µM | – | > 100 | 15.5 µM and 4.52 µM | 31.9 µM and 12.2 µM | – | 31.4 µM and 45.1 µM | 16.3 µM and 3.77 µM | 29.9 µM and 15.5 µM |
| COc1ccc2c(c1)C(=O)c1c-2c(N2CCN(C(=O)CNCCN(C)C)CC2)nc2ccccc12 | 4.49 | 16.7 | 4.99 µM | 19.8 µM | 1.39 µM | 4.5 | 3.9 µM | 17.5 µM | 3.32 | 13.3 | 1.11 µM | 2.69 µM | 1.62 | 3.11 | 4.11 µM | 18 µM | 2.3 | 5.44 µM | 1.76 µM | 3.44 µM |
| O=C1CCSC(=S)N1c1ccc(Br)c(Cl)c1 | – | 35.9 | – | 57.6 µM | – | > 100 | – | 92.1 µM | – | > 100 | – | 49.5 µM | – | 48.6 | – | 63.9 µM | – | 40.2 µM | – | 42.6 µM |
| O=C1/C(=C/c2ccc(Cl)c(Cl)c2)CNC/C1=C\c1ccc(Cl)c(Cl)c1 | – | > 70.4 | – | 32.6 µM | – | 5.68 | – | 16 µM | – | > 100 | – | 18.8 µM | – | 50 | – | 39.9 µM | – | 7.95 µM | – | 26.7 µM |
| CN(C)c1ccc(Nc2c3ccccc3nc3cc(NC(=O)CCN4CCCC4)ccc23)cc1 | 1.04 | 2.32 | 0.305 µM | 1.64 µM | 0.0778 µM | 1.38 | 0.533 µM | 2.96 µM | 0.155 | 1.19 | 0.291 µM | 1.83 µM | 0.0711 | 1.61 | 0.577 µM | 2.59 µM | 0.816 | 2.2 µM | 0.541 µM | 2.21 µM |
